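Step 1: Grow cells in 96-well plates. Step 2: Expose to compound for 48 hours at 5 concentrations. Step 3: Interpolate endpoints linearly; if unreached, use highest concentration. GI50: concentration for 50% inhibition of growth. TGI: total growth inhibition.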
Experiments:
Assay in all cases: growth of human tumour cells (NCI), 48 h
A498 renal = system: A498 renal
ACHN renal = system: ACHN renal
LOX IMVI melanoma = system: LOX IMVI melanoma
NCI-H226 lung = system: NCI-H226 lung
UO-31 renal = system: UO-31 renal
OVCAR-8 ovarian = system: OVCAR-8 ovarian
MALME-3M melanoma = system: MALME-3M melanoma
SNB-75 CNS = system: SNB-75 CNS
SR leukemia = system: SR leukemia
OVCAR-5 ovarian = system: OVCAR-5 ovarian
HCT-116 colon = system: HCT-116 colon
HCC-2998 colon = system: HCC-2998 colon
MDA-MB-435 = system: MDA-MB-435
SK-MEL-5 melanoma = system: SK-MEL-5 melanoma
MDA-MB-231 breast = system: MDA-MB-231 breast
HOP-92 NSCLC = system: HOP-92 NSCLC
OVCAR-4 ovarian = system: OVCAR-4 ovarian
CAKI-1 renal = system: CAKI-1 renal
T-47D breast = system: T-47D breast
U251 CNS = system: U251 CNS
IGROV1 ovarian = system: IGROV1 ovarian
SW-620 colon = system: SW-620 colon
HOP-62 NSCLC = system: HOP-62 NSCLC
786-0 renal = system: 786-0 renal
SK-OV-3 ovarian = system: SK-OV-3 ovarian
NCI/ADR-RES ovarian = system: NCI/ADR-RES ovarian
MCF7 breast = system: MCF7 breast
UACC-62 melanoma = system: UACC-62 melanoma
SF-295 CNS = system: SF-295 CNS
PC-3 prostate = system: PC-3 prostate
BT-549 breast = system: BT-549 breast
NCI-H460 lung = system: NCI-H460 lung
SF-539 CNS = system: SF-539 CNS
SF-268 CNS = system: SF-268 CNS
K-562 leukemia = system: K-562 leukemia
MOLT-4 leukemia = system: MOLT-4 leukemia
RPMI-8226 leukemia = system: RPMI-8226 leukemia
SNB-19 CNS = system: SNB-19 CNS
HCT-15 colon = system: HCT-15 colon
KM12 colon = system: KM12 colon
RXF 393 renal = system: RXF 393 renal
SN12C renal = system: SN12C renal
COLO 205 colon = system: COLO 205 colon
DU-145 prostate = system: DU-145 prostate
HL-60(TB) leukemia = system: HL-60(TB) leukemia
TK-10 renal = system: TK-10 renal
SK-MEL-28 melanoma = system: SK-MEL-28 melanoma
HT29 colon = system: HT29 colon
SK-MEL-2 melanoma = system: SK-MEL-2 melanoma
M14 melanoma = system: M14 melanoma
OVCAR-3 ovarian = system: OVCAR-3 ovarian
HS 578T breast = system: HS 578T breast
NCI-H23 lung = system: NCI-H23 lung

C/C(=N\NC(=O)c1ccccc1N)c1ccccc1O
GI50 (A498 renal): 10.4 µM
TGI (A498 renal): > 100 µM
GI50 (ACHN renal): 2.63 µM
TGI (ACHN renal): > 100 µM
GI50 (LOX IMVI melanoma): 4.09 µM
TGI (LOX IMVI melanoma): > 100 µM
GI50 (NCI-H226 lung): 5.14 µM
TGI (NCI-H226 lung): > 100 µM
GI50 (UO-31 renal): 1.94 µM
TGI (UO-31 renal): > 100 µM
GI50 (OVCAR-8 ovarian): 3.16 µM
TGI (OVCAR-8 ovarian): > 100 µM
GI50 (MALME-3M melanoma): 19.4 µM
TGI (MALME-3M melanoma): > 100 µM
GI50 (SNB-75 CNS): > 100 µM
TGI (SNB-75 CNS): > 100 µM
GI50 (SR leukemia): 2.83 µM
TGI (SR leukemia): 66.6 µM
GI50 (OVCAR-5 ovarian): 4.45 µM
TGI (OVCAR-5 ovarian): > 100 µM
GI50 (HCT-116 colon): 2.4 µM
TGI (HCT-116 colon): > 100 µM
GI50 (HCC-2998 colon): 5.8 µM
TGI (HCC-2998 colon): > 100 µM
GI50 (MDA-MB-435): 8.53 µM
TGI (MDA-MB-435): > 100 µM
GI50 (SK-MEL-5 melanoma): 3.83 µM
TGI (SK-MEL-5 melanoma): 57.7 µM
GI50 (MDA-MB-231 breast): 5.24 µM
TGI (MDA-MB-231 breast): > 100 µM
GI50 (HOP-92 NSCLC): 24.7 µM
TGI (HOP-92 NSCLC): > 100 µM
GI50 (OVCAR-4 ovarian): 2.14 µM
TGI (OVCAR-4 ovarian): > 100 µM
GI50 (CAKI-1 renal): 2.34 µM
TGI (CAKI-1 renal): > 100 µM
GI50 (T-47D breast): 2.6 µM
TGI (T-47D breast): > 100 µM
GI50 (U251 CNS): 2.21 µM
TGI (U251 CNS): > 100 µM
GI50 (IGROV1 ovarian): 3.56 µM
TGI (IGROV1 ovarian): > 100 µM
GI50 (SW-620 colon): 5.05 µM
TGI (SW-620 colon): > 100 µM
GI50 (HOP-62 NSCLC): 4.4 µM
TGI (HOP-62 NSCLC): > 100 µM
GI50 (786-0 renal): 5.37 µM
TGI (786-0 renal): 80.4 µM
GI50 (SK-OV-3 ovarian): 13.4 µM
TGI (SK-OV-3 ovarian): > 100 µM
GI50 (NCI/ADR-RES ovarian): 4.52 µM
TGI (NCI/ADR-RES ovarian): > 100 µM
GI50 (MCF7 breast): 2.71 µM
TGI (MCF7 breast): > 100 µM
GI50 (UACC-62 melanoma): 3.39 µM
TGI (UACC-62 melanoma): 47.5 µM
GI50 (SF-295 CNS): 3.23 µM
TGI (SF-295 CNS): > 100 µM
GI50 (PC-3 prostate): 6.95 µM
TGI (PC-3 prostate): > 100 µM
GI50 (BT-549 breast): 14.9 µM
TGI (BT-549 breast): > 100 µM
GI50 (NCI-H460 lung): 1.65 µM
TGI (NCI-H460 lung): > 100 µM
GI50 (SF-539 CNS): 3.26 µM
TGI (SF-539 CNS): > 100 µM
GI50 (SF-268 CNS): 3.05 µM
TGI (SF-268 CNS): > 100 µM
GI50 (K-562 leukemia): 3.72 µM
TGI (K-562 leukemia): > 100 µM
GI50 (MOLT-4 leukemia): 3.17 µM
TGI (MOLT-4 leukemia): > 100 µM
GI50 (RPMI-8226 leukemia): 9.51 µM
TGI (RPMI-8226 leukemia): > 100 µM
GI50 (SNB-19 CNS): 9.72 µM
TGI (SNB-19 CNS): > 100 µM
GI50 (HCT-15 colon): 1.44 µM
TGI (HCT-15 colon): > 100 µM
GI50 (KM12 colon): 3.92 µM
TGI (KM12 colon): > 100 µM
GI50 (RXF 393 renal): 11.2 µM
TGI (RXF 393 renal): > 100 µM
GI50 (SN12C renal): 5.25 µM
TGI (SN12C renal): > 100 µM
GI50 (COLO 205 colon): 3.23 µM
TGI (COLO 205 colon): > 100 µM
GI50 (DU-145 prostate): 4.67 µM
TGI (DU-145 prostate): > 100 µM
GI50 (HL-60(TB) leukemia): 3.01 µM
TGI (HL-60(TB) leukemia): > 100 µM
GI50 (TK-10 renal): 1.5 µM
TGI (TK-10 renal): > 100 µM
GI50 (SK-MEL-28 melanoma): 8.44 µM
TGI (SK-MEL-28 melanoma): > 100 µM
GI50 (HT29 colon): 8.58 µM
TGI (HT29 colon): > 100 µM
GI50 (SK-MEL-2 melanoma): 12.5 µM
TGI (SK-MEL-2 melanoma): > 100 µM
GI50 (M14 melanoma): 4.29 µM
TGI (M14 melanoma): 57.5 µM
GI50 (OVCAR-3 ovarian): 2.79 µM
TGI (OVCAR-3 ovarian): > 100 µM
GI50 (HS 578T breast): 16.7 µM
TGI (HS 578T breast): > 100 µM
GI50 (NCI-H23 lung): 7.33 µM
TGI (NCI-H23 lung): > 100 µM
